Experimental data from US20210299111A1, “EIF4A INHIBITOR COMBINATIONS” (eFFECTOR Therapeutics Inc., priority 2020, published 2021).

Experiments:
[1] = tested on: DLD1 (KRAS G13D) colorectal cancer cells; test: Cell viability (crystal violet) in KRAS mutant DLD1 cells; type: cell-based; settings: Palbociclib 100 nM, eFT226 10 or 50 nM, 24 hours, then Palbociclib alone for 13 days, FIG. 5
Protocol: (§1) SW620 (KRAS G12V) colorectal cancer cells (FIG. 1), DLD1 (KRAS G13D) colorectal cancer cells (FIG. 2), and CORL23 (KRAS G12V) NSCLC cells (FIG. 3) were seeded at 500-1,000 cells/well in 6-well plates and treated with DMSO control (“DMSO”), Palbociclib (100 nM) (“Palbo”), eFT226 (10 or 50 nM), or the combination of the two drugs (“Palbo+eFT226). After 24 hours of treatment, cells were rinsed and treatment with Palbociclib alone was continued for an additional 13 days. At the end of treatment, cells were rinsed with phosphate buffered saline (PBS) and stained with crystal violet.

[2] = tested on: MDA-MB-361 ER^+ breast cancer cells; test: MDA-MB-361 xenograft tumor growth in athymic mice; type: in vivo; settings: eFT226 0.1 mg/kg intravenously Q4D, palbociclib 30 mg/kg orally QD, 18 days, tumor volume followed up to 45 days after last dose, FIG. 3
Protocol: The in vivo effect of a combination treatment using eFT226 and palbociclib on the tumor growth of MDA-MB-361 ER^+ breast cancer cells was tested. Xenograft experiments were performed by implanting MDA-MB-361 ER^+ breast cancer cells into athymic mice. Athymic mice implanted with MDA-MB-361 tumor cells were randomized and size-matched into vehicle and treatment groups when the mean tumor size reached ˜300 mm^3. The mice were then treated with (1) control vehicle; (2) 0.1 mg/kg of eFT226 administered intravenously every 4 days (Q4D) for a period of 18 days; (3) 30 mg/kg of palbociclib administered orally every day (QD) for a period of 18 days; or (4) 0.1 mg/kg of eFT226 administered intravenously Q4D and 30 mg/kg of palbociclib administered orally QD for a period of 18 days. The effect on the above treatments on tumor volume was monitored. Tumor volume was measured periodically for up to 45 days after the last dose of treatment was administered. […] Administration of either eFT226 or palbociclib alone led to a inhibition of tumor growth for about 22 days after the treatment was stopped. […] It is unknown what factors determine the equilibrium between the CDK4/6 inhibitor-sensitive monomeric CDK4 and the drug resistant p27-CDK4-cyclin D1 trimer.

[3] = tested on: MDA-MB-361 ER^+ breast cancer cells; test: Cell viability of MDA-MB-361 cells, single agents and combination; type: cell-based; settings: Palbociclib 40 nM, eFT226 45 nM, 24 hours, then Palbociclib only for 6 days, versus untreated control, FIG. 2
Protocol: MDA-MB-361 ER^+ breast cancer cells were seeded at 10,000 cells/well in 24-well plates and treated with DMSO (“control”), Palbociclib (40 nM)(“Palbo”), eFT226 (45 nM) (“eFT226”), or the combination of the two drugs (“Combo”). After 24 hours of treatment, cells were rinsed and treatment with Palbociclib only was continued for 6 days, at which time cell viability was determined. Cells were counted on day 0 and day 6, when the experiment was ended.

[4] = tested on: phosphorylated retinoblastoma (Rb) protein; test: Phosphorylated Rb protein in MDA-MB-361 ER+ breast cancer cells treated with eFT226; type: cell-based; settings: MDA-MB-361 cells; eFT226 10 nM, 30 nM, 100 nM; 24 hours; FIG. 1
Protocol: (§2) The effect of eFT226 on key cell cycle regulators in MDA-MB-361 ER^+ breast cancer cells was tested. MDA-MB-361 ER^+ breast cancer cells were treated with varying concentrations of eFT226 (10 nM, 30 nM, and 100 nM) for 24 hours, and analyzed for the expression of the relevant key cell cycle regulators, cyclin D1, CDK4, and phosphorylated retinoblastoma (Rb) protein.

[5] = tested on: CORL23 (KRAS G12V) NSCLC cells; test: Cell viability (crystal violet) in KRAS mutant CORL23 cells; type: cell-based; settings: Palbociclib 100 nM, eFT226 10 or 50 nM, 24 hours, then Palbociclib alone for 13 days, FIG. 6
Protocol: as §1

[6] = tested on: SW620 (KRAS G12V) colorectal cancer cells; test: Cell viability (crystal violet) in KRAS mutant SW620 cells; type: cell-based; settings: Palbociclib 100 nM, eFT226 10 or 50 nM, 24 hours, then Palbociclib alone for 13 days, FIG. 4
Protocol: as §1

CDK4 = test: Expression of CDK4 in MDA-MB-361 ER+ breast cancer cells treated with eFT226; type: cell-based; settings: MDA-MB-361 cells; eFT226 10 nM, 30 nM, 100 nM; 24 hours; FIG. 1
Protocol: as §2

cyclin D1 = test: Expression of cyclin D1 in MDA-MB-361 ER+ breast cancer cells treated with eFT226; type: cell-based; settings: MDA-MB-361 cells, 24 hours, FIG. 1
Protocol: as §2

SMILES	cell viability [1]	duration of inhibition of tumor growth after the last dose [2]	cell viability [3]	phosphorylated Rb protein [4]	cell viability [5]	cell viability [6]	CDK4 expression (CDK4)	decrease of Cyclin D1 protein levels compared with Fulvestrant (cyclin D1)	cyclin D1 expression (cyclin D1; eFT226 10 nM, 30 nM, 100 nM)
COc1cc2c(c(OC)n1)[C@]1(O)[C@H](O)[C@H](CN(C)C)[C@@H](c3ccccc3)[C@]1(c1ccc(C#N)cc1)O2 [eFT226]	reduced	about 22 days	reduced	concomitant decrease in phosphorylated Rb protein	reduced	reduced	suppression of cyclin D1 and CDK4 expression was observed in the cell line at all concentrations	more effective than Fulvestrant (Fulv) in decreasing Cyclin D1 protein levels	suppression of cyclin D1 and CDK4 expression was observed in the cell line at all concentrations
CC(=O)c1c(C)c2cnc(Nc3ccc(N4CCNCC4)cn3)nc2n(C2CCCC2)c1=O [palbociclib, reference compound]		about 22 days							
